In ChEMBL document CHEMBL1201862, “PubChem BioAssay data set” (2004):
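Compound exposure: 48 hours, 5 concentrations, 96-well plates. GI50: concentration for 50% inhibition of growth.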 Calls of active or inactive are those of the source. Rule as the data show it: active = GI50 up to about 1.1 µM and inactive = higher.

Columns and labels:
Experiment in all cases: inhibition of tumour cell growth, NCI panel, 48 h
[1] = test system: K562
[2] = test system: CAKI-1
[3] = test system: A498
[4] = test system: ACHN
[5] = test system: SK-MEL-5
[6] = test system: HCT-116
[7] = test system: HCT-15
[8] = test system: CCRF-CEM
[9] = test system: RXF 393
[10] = test system: SF-539
[11] = test system: LOX IMVI
[12] = test system: OVCAR-8
[13] = test system: UACC-62
[14] = test system: UACC-257
[15] = test system: NCI/ADR-RES
[16] = test system: MDA-MB-435
[17] = test system: MCF7
[18] = test system: MDA-MB-231
[19] = test system: PC-3

Row | Structure (SMILES) | GI50 [1] | GI50 [2] | GI50 [3] | GI50 [4] | GI50 [5] | GI50 [6] | GI50 [7] [µM] | GI50 [8] | GI50 [9] | GI50 [10] | GI50 [11] | GI50 [12] | GI50 [13] | GI50 [14] | GI50 [15] | GI50 [16] | GI50 [17] | GI50 [18] | GI50 [19]
1 | NNC(=S)N/N=C(\c1nc2ccc(Cl)cc2nc1O)C(O)c1ccc(Cl)cc1Cl (stereo not drawn) | > 100 µM (inactive) | > 100 µM (inactive) | > 100 µM (inactive) | > 100 µM (inactive) | > 100 µM (inactive) | > 100 µM (inactive) | > 100 | > 100 µM (inactive) | > 100 µM (inactive) | > 100 µM (inactive) | > 100 µM (inactive) | > 100 µM (inactive) | > 100 µM (inactive) | > 100 µM (inactive) |  |  |  |  | 
2 | N#CC(NNC(=O)Cc1ccccc1)c1cccc(O)c1 (stereo not drawn) | > 100 µM (inactive) | > 100 µM (inactive) |  | > 100 µM (inactive) | > 100 µM (inactive) | > 100 µM (inactive) | > 100 | > 100 µM (inactive) | > 100 µM (inactive) | > 100 µM (inactive) | > 100 µM (inactive) | > 100 µM (inactive) | > 100 µM (inactive) | > 100 µM (inactive) |  |  |  |  | 
3 | COC(=O)C(=O)C(C(=O)C1=NS(=O)(=O)c2cc(S(N)(=O)=O)c(Cl)cc2N1)c1nc2ccc(C(=O)c3ccccc3)cc2nc1O (stereo not drawn) | 40 µM (inactive) | 57.8 µM (inactive) | 51.5 µM (inactive) | > 100 µM (inactive) | 40.2 µM (inactive) | > 100 µM (inactive) | > 100 | 75.5 µM (inactive) | > 100 µM (inactive) | 90.6 µM (inactive) |  | 59 µM (inactive) | 63.2 µM (inactive) | 71.6 µM (inactive) |  |  |  |  | 
4 | CCCCN/N=N/c1cn(C2OC(CO)C(O)C2O)c(=O)[nH]c1=O (stereo not drawn) |  | > 100 µM (inactive) | > 100 µM (inactive) | > 100 µM (inactive) | > 100 µM (inactive) | > 100 µM (inactive) | > 100 | > 100 µM (inactive) | > 100 µM (inactive) | > 100 µM (inactive) | > 100 µM (inactive) | > 100 µM (inactive) | > 100 µM (inactive) | > 100 µM (inactive) | > 100 µM (inactive) | > 100 µM (inactive) | > 100 µM (inactive) | > 100 µM (inactive) | > 100 µM (inactive)
5 | c1ccc(-c2[nH]c(-c3ccccc3)c(-c3cnccn3)c2-c2cnccn2)cc1 | > 100 µM (inactive) | > 100 µM (inactive) | > 100 µM (inactive) | > 100 µM (inactive) | > 100 µM (inactive) | > 100 µM (inactive) | > 100 | > 100 µM (inactive) | > 100 µM (inactive) | > 100 µM (inactive) | > 100 µM (inactive) | > 100 µM (inactive) | > 100 µM (inactive) | > 100 µM (inactive) |  |  |  |  | 
6 | CC1=C(C(=O)Nc2cccc(C(F)(F)F)c2)C(c2ccccc2F)C(C(=O)Nc2cccc(C(F)(F)F)c2)=C(C)N1 | 3.96 µM (inactive) | 8.57 µM (inactive) | 9.16 µM (inactive) | 4.2 µM (inactive) | 5.43 µM (inactive) | 3.63 µM (inactive) |  | 3.09 µM (inactive) | 3.57 µM (inactive) | 8.75 µM (inactive) | 5.37 µM (inactive) | 9.62 µM (inactive) |  | 8.65 µM (inactive) |  |  |  |  | 
7 | CC(C)(C)c1cc[n+](C[n+]2ccc(C(C)(C)C)cc2)cc1 | > 100 µM (inactive) | > 100 µM (inactive) | 53.6 µM (inactive) | > 100 µM (inactive) | > 100 µM (inactive) | > 100 µM (inactive) | > 100 | > 100 µM (inactive) | > 100 µM (inactive) | > 100 µM (inactive) |  | > 100 µM (inactive) | > 100 µM (inactive) |  | > 100 µM (inactive) | > 100 µM (inactive) | > 100 µM (inactive) | > 100 µM (inactive) | > 100 µM (inactive)
8 | COC(=O)C1=C(c2cc(OC)c(OC)c(OC)c2)OC(c2cc(OC)c(OC)c(OC)c2)C1COC(C)=O (stereo not drawn) | 24 µM (inactive) | > 100 µM (inactive) | 51.5 µM (inactive) | 30.1 µM (inactive) | 29.4 µM (inactive) | 30.4 µM (inactive) | 26.9 | 41.8 µM (inactive) | 40.6 µM (inactive) | > 100 µM (inactive) | 20.8 µM (inactive) | 59.7 µM (inactive) | 30.5 µM (inactive) | 95.7 µM (inactive) |  |  |  |  | 
9 | COC(=O)c1ccc(Cc2ccc(C(=O)OC)o2)o1 | > 378 µM (inactive) | > 378 µM (inactive) |  | > 378 µM (inactive) | > 378 µM (inactive) | > 378 µM (inactive) | > 378 | > 378 µM (inactive) | 282 µM (inactive) | > 378 µM (inactive) | > 378 µM (inactive) | > 378 µM (inactive) | > 378 µM (inactive) | > 378 µM (inactive) |  |  |  |  | 
